{"source": "PubChem BioAssay AID1963967", "about": "(Molecular Pharmacology Branch, DTP, NCI, 2024)", "system": "855422-203-R-J1-PDC spheroids with HUVEC/MSC, viability", "assay": "Anticancer human tumor 855422-203-R-J1-PDC patient-derived bladder carcinoma cell line growth inhibition [PI3K]", "settings": "for viability, T/C: stronger effect = lower value", "how_it_was_run": "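Viability of mixed-cell spheroids was determined after exposure to pairwise combinations, one partner being inavolisib, alpelisib, duvelisib or copanlisib. Highest tested concentration matched clinical Cmax where known and 10 microM where not, descending in half-log steps.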", "note": "Several values for one entry are separate records, joined by “and”; a condition that tells them apart may be missing. Identical values can stand only once.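 Also: agents incubated with spheroids for one week before read-out.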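 For viability, T/C in this document: 100% = DMSO vehicle-treated control wells.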"}
{"smiles": "CC(C)NCC(C(=O)N1CCN(c2ncnc3c2C(C)CC3O)CC1)c1ccc(Cl)cc1", "note": "(centres undefined)", "values": [{"measurement": "viability, T/C", "setting": "compound 0.0316 µM", "value": "93.1% [middle of 4 runs]"}, {"measurement": "viability, T/C", "setting": "compound 0.1 µM", "value": "82.9% [middle of 4 runs]"}, {"measurement": "viability, T/C", "setting": "compound 0.316 µM", "value": "78.5% [middle of 4 runs]"}, {"measurement": "viability, T/C", "setting": "compound 1 µM", "value": "51.7% [middle of 4 runs]"}, {"measurement": "viability, T/C", "setting": "compound 3.16 µM", "value": "36.8% [middle of 4 runs]"}, {"measurement": "viability, T/C", "setting": "compound 10 µM", "value": "19.9% (2×) and 18.6% and 19.6%"}, {"measurement": "IC50", "setting": "curve of compound", "value": "1.25 µM [middle of 4 runs]"}]}
{"smiles": "C=CC(=O)N1CCN(c2nc(=O)n(-c3c(C)ccnc3C(C)C)c3nc(-c4c(O)cccc4F)c(F)cc23)C(C)C1", "note": "(centres undefined) + CC(Nc1ccc2c(c1)OCCn1cc(N3C(=O)OCC3C(F)F)nc1-2)C(N)=O", "values": [{"measurement": "IC50", "setting": "curve of first compound, second compound 0.00316 µM", "value": "> 10", "unit": "µM"}, {"measurement": "IC50", "setting": "curve of first compound, second compound 0.01 µM", "value": "> 10", "unit": "µM"}, {"measurement": "IC50", "setting": "curve of first compound, second compound 0.0316 µM", "value": "> 10", "unit": "µM"}, {"measurement": "IC50", "setting": "curve of first compound, second compound 0.1 µM", "value": "> 10", "unit": "µM"}, {"measurement": "IC50", "setting": "curve of first compound, second compound 0.316 µM", "value": "> 10", "unit": "µM"}, {"measurement": "IC50", "setting": "curve of first compound, second compound 1 µM", "value": "< 0.0316", "unit": "µM"}, {"measurement": "viability, T/C", "setting": "second compound 0.00316 µM, first compound 0.0316 µM", "value": 80.4, "unit": "%"}, {"measurement": "viability, T/C", "setting": "second compound 0.00316 µM, first compound 0.1 µM", "value": 95.2, "unit": "%"}, {"measurement": "viability, T/C", "setting": "second compound 0.00316 µM, first compound 0.316 µM", "value": 116, "unit": "%"}, {"measurement": "viability, T/C", "setting": "second compound 0.00316 µM, first compound 1 µM", "value": 101, "unit": "%"}, {"measurement": "viability, T/C", "setting": "second compound 0.00316 µM, first compound 3.16 µM", "value": 122, "unit": "%"}, {"measurement": "viability, T/C", "setting": "second compound 0.00316 µM, first compound 10 µM", "value": 121, "unit": "%"}, {"measurement": "viability, T/C", "setting": "second compound 0.01 µM, first compound 0.0316 µM", "value": 96.1, "unit": "%"}, {"measurement": "viability, T/C", "setting": "second compound 0.01 µM, first compound 0.1 µM", "value": 98.5, "unit": "%"}, {"measurement": "viability, T/C", "setting": "second compound 0.01 µM, first compound 0.316 µM", "value": 121, "unit": "%"}, {"measurement": "viability, T/C", "setting": "second compound 0.01 µM, first compound 1 µM", "value": 99.5, "unit": "%"}, {"measurement": "viability, T/C", "setting": "second compound 0.01 µM, first compound 3.16 µM", "value": 119, "unit": "%"}, {"measurement": "viability, T/C", "setting": "second compound 0.01 µM, first compound 10 µM", "value": 120, "unit": "%"}, {"measurement": "viability, T/C", "setting": "second compound 0.0316 µM, first compound 0.0316 µM", "value": 91.5, "unit": "%"}, {"measurement": "viability, T/C", "setting": "second compound 0.0316 µM, first compound 0.1 µM", "value": 81.1, "unit": "%"}, {"measurement": "viability, T/C", "setting": "second compound 0.0316 µM, first compound 0.316 µM", "value": 96.7, "unit": "%"}, {"measurement": "viability, T/C", "setting": "second compound 0.0316 µM, first compound 1 µM", "value": 90.6, "unit": "%"}, {"measurement": "viability, T/C", "setting": "second compound 0.0316 µM, first compound 3.16 µM", "value": 99.6, "unit": "%"}, {"measurement": "viability, T/C", "setting": "second compound 0.0316 µM, first compound 10 µM", "value": 99.5, "unit": "%"}, {"measurement": "viability, T/C", "setting": "second compound 0.1 µM, first compound 0.0316 µM", "value": 80.2, "unit": "%"}, {"measurement": "viability, T/C", "setting": "second compound 0.1 µM, first compound 0.1 µM", "value": 66.1, "unit": "%"}, {"measurement": "viability, T/C", "setting": "second compound 0.1 µM, first compound 0.316 µM", "value": 75.5, "unit": "%"}, {"measurement": "viability, T/C", "setting": "second compound 0.1 µM, first compound 1 µM", "value": 89, "unit": "%"}, {"measurement": "viability, T/C", "setting": "second compound 0.1 µM, first compound 3.16 µM", "value": 80.8, "unit": "%"}, {"measurement": "viability, T/C", "setting": "second compound 0.1 µM, first compound 10 µM", "value": 93.4, "unit": "%"}, {"measurement": "viability, T/C", "setting": "second compound 0.316 µM, first compound 0.0316 µM", "value": 54.5, "unit": "%"}, {"measurement": "viability, T/C", "setting": "second compound 0.316 µM, first compound 0.1 µM", "value": 54.4, "unit": "%"}, {"measurement": "viability, T/C", "setting": "second compound 0.316 µM, first compound 0.316 µM", "value": 53.8, "unit": "%"}, {"measurement": "viability, T/C", "setting": "second compound 0.316 µM, first compound 1 µM", "value": 75, "unit": "%"}, {"measurement": "viability, T/C", "setting": "second compound 0.316 µM, first compound 3.16 µM", "value": 73.9, "unit": "%"}, {"measurement": "viability, T/C", "setting": "second compound 0.316 µM, first compound 10 µM", "value": 68.8, "unit": "%"}, {"measurement": "viability, T/C", "setting": "second compound 1 µM, first compound 0.0316 µM", "value": 39, "unit": "%"}, {"measurement": "viability, T/C", "setting": "second compound 1 µM, first compound 0.1 µM", "value": 30.9, "unit": "%"}, {"measurement": "viability, T/C", "setting": "second compound 1 µM, first compound 0.316 µM", "value": 39.2, "unit": "%"}, {"measurement": "viability, T/C", "setting": "second compound 1 µM, first compound 1 µM", "value": 44, "unit": "%"}, {"measurement": "viability, T/C", "setting": "second compound 1 µM, first compound 3.16 µM", "value": 50.6, "unit": "%"}, {"measurement": "viability, T/C", "setting": "second compound 1 µM, first compound 10 µM", "value": 38.7, "unit": "%"}]}
